According to patent publication US10370371B2, “Substituted pyrimidine Bmi-1 inhibitors” (PTC Therapeutics, Inc., priority 2013, dated 2019):

Key:
Bmi-1 protein = assay: Sandwich ELISA Assay (Bmi-1 protein level in HT-1080 cells); assay type: cell-based
How it was run: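 HT-1080 cells were treated with compounds (0.5% DMSO final) for 40-48 h at 37 °C. Lysates were assayed by sandwich ELISA: mouse anti-Bmi-1 capture, rabbit anti-Bmi-1 and HRP anti-rabbit detection, TMB read at OD450 (OD570 reference). Levels were quantified against a recombinant GST-Bmi-1 standard curve (125-8000 pg/mL).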

In the case of Cc1nc2ccccc2n1-c1cc(N)nc(Nc2ccc3c(c2)OCO3)n1 [Cpd 130, N^2-(1,3-benzodioxol-5-yl)-6-(2-methyl-1H-benzimidazol-1-yl)pyrimidine-2,4-diamine], the EC50 (Bmi-1 protein) is reported as 1 to 10 nM and the melting point is reported as 118 to 119 °C.
In the case of Cc1ccc(Nc2nc(N)cc(-n3c(C)nc4ccc(F)cc43)n2)cc1 [Cpd 134, 6-(6-fluoro-2-methyl-1H-benzimidazol-1-yl)-N^2-(4-methylphenyl)pyrimidine-2,4-diamine], the EC50 (Bmi-1 protein) is reported as 1 to 10 nM and the melting point is reported as 118 to 120 °C.
With Cc1nc2ccc(F)cc2n1-c1cc(N)nc(Nc2ccc(Cl)cc2)n1 [Cpd 135, N^2-(4-chlorophenyl)-6-(6-fluoro-2-methyl-1H-benzimidazol-1-yl)pyrimidine-2,4-diamine] the EC50 (Bmi-1 protein) was 10 to 100 nM and the melting point was 149 to 151 °C.
Cc1nc2ccc(F)cc2n1-c1cc(N)nc(Nc2ccc(N(C)C)cc2)n1 [Cpd 136, N^2-[4-(dimethylamino)phenyl]-6-(6-fluoro-2-methyl-1H-benzimidazol-1-yl)pyrimidine-2,4-diamine] showed an EC50 (Bmi-1 protein) of 1 to 10 nM and a melting point of 232 to 235 °C.
Compound Cc1nc2ccc(F)cc2n1-c1cc(N)nc(Nc2ccc(C#N)cc2)n1 [Cpd 137, 4-{[4-amino-6-(6-fluoro-2-methyl-1H-benzimidazol-1-yl)pyrimidin-2-yl]amino}benzonitrile] has an EC50 (Bmi-1 protein) of 100 to 3000 nM and a melting point of 183 to 185 °C.
Cc1nc2ccc(F)cc2n1-c1cc(N)nc(Nc2cccc(F)c2)n1 [Cpd 138, 6-(6-fluoro-2-methyl-1H-benzimidazol-1-yl)-N^2-(3-fluorophenyl)pyrimidine-2,4-diamine] gave an EC50 (Bmi-1 protein) of 100 to 3000 nM and a melting point of 239 to 241 °C.
Compound Cc1cccc(Nc2nc(N)cc(-n3c(C)nc4ccc(F)cc43)n2)c1 [Cpd 139, 6-(6-fluoro-2-methyl-1H-benzimidazol-1-yl)-N^2-(3-methylphenyl)pyrimidine-2,4-diamine] has an EC50 (Bmi-1 protein) of 100 to 3000 nM and a melting point of 156 to 158 °C.
In the case of COc1cccc(Nc2nc(N)cc(-n3c(C)nc4ccc(F)cc43)n2)c1 [Cpd 140, 6-(6-fluoro-2-methyl-1H-benzimidazol-1-yl)-N^2-(3-methoxyphenyl)pyrimidine-2,4-diamine], the EC50 (Bmi-1 protein) is reported as 100 to 3000 nM and the melting point is reported as 127 to 129 °C.
For Cc1nc2ccc(F)cc2n1-c1cc(N)nc(Nc2cccc(Cl)c2)n1 [Cpd 141, N^2-(3-chlorophenyl)-6-(6-fluoro-2-methyl-1H-benzimidazol-1-yl)pyrimidine-2,4-diamine], the EC50 (Bmi-1 protein) was 100 to 3000 nM and the melting point was 211 to 213 °C.
COc1ccc(Nc2nc(N)cc(-n3c(C)nc4ccc(F)cc43)n2)cc1F [Cpd 142, N^2-(3-fluoro-4-methoxyphenyl)-6-(6-fluoro-2-methyl-1H-benzimidazol-1-yl)pyrimidine-2,4-diamine] showed an EC50 (Bmi-1 protein) of 1 to 10 nM and a melting point of 166 to 167 °C.
For Cc1nc2ccc(F)cc2n1-c1cc(N)nc(Nc2ccccc2)n1 [Cpd 143, 6-(6-fluoro-2-methyl-1H-benzimidazol-1-yl)-N^2-phenylpyrimidine-2,4-diamine], the EC50 (Bmi-1 protein) was 100 to 3000 nM and the melting point was 158 to 161 °C.
COc1ccc(Nc2nc(N)cc(-n3c(C)nc4ccccc43)n2)cc1F [Cpd 148, N^2-(3-fluoro-4-methoxyphenyl)-6-(2-methyl-1H-benzimidazol-1-yl)pyrimidine-2,4-diamine] showed an EC50 (Bmi-1 protein) of 1 to 10 nM and a melting point of 186 to 187 °C.
For CCc1nc2ccccc2n1-c1cc(N)nc(Nc2ccc(Cl)cc2)n1 [Cpd 150, N^2-(4-chlorophenyl)-6-(2-ethyl-1H-benzimidazol-1-yl)pyrimidine-2,4-diamine], the EC50 (Bmi-1 protein) was 1 to 10 nM and the melting point was 172 to 173 °C.
CCc1nc2ccccc2n1-c1cc(N)nc(Nc2ccc(OC)cc2)n1 [Cpd 151, 6-(2-ethyl-1H-benzimidazol-1-yl)-N^2-(4-methoxyphenyl)pyrimidine-2,4-diamine] showed an EC50 (Bmi-1 protein) of 1 to 10 nM and a melting point of 144 to 145 °C.
CCc1nc2ccccc2n1-c1cc(N)nc(Nc2ccccc2C)n1 [Cpd 152, 6-(2-ethyl-1H-benzimidazol-1-yl)-N^2-(2-methylphenyl)pyrimidine-2,4-diamine] gave an EC50 (Bmi-1 protein) of 100 to 3000 nM and a melting point of 119 to 120 °C.
Compound CCc1nc2ccccc2n1-c1cc(N)nc(Nc2ccc3c(c2)OCO3)n1 [Cpd 154, N^2-(1,3-benzodioxol-5-yl)-6-(2-ethyl-1H-benzimidazol-1-yl)pyrimidine-2,4-diamine] has an EC50 (Bmi-1 protein) of 10 to 100 nM and a melting point of 119 to 121 °C.
Work on CCc1nc2ccccc2n1-c1cc(N)nc(Nc2ccc(OC)c(F)c2)n1 [Cpd 155, 6-(2-ethyl-1H-benzimidazol-1-yl)-N^2-(3-fluoro-4-methoxyphenyl)pyrimidine-2,4-diamine] yielded an EC50 (Bmi-1 protein) of 1 to 10 nM and a melting point of 104 to 106 °C.
CCc1nc2ccccc2n1-c1cc(N)nc(Nc2ccc(OC)c(Cl)c2)n1 [Cpd 156, N^2-(3-chloro-4-methoxyphenyl)-6-(2-ethyl-1H-benzimidazol-1-yl)pyrimidine-2,4-diamine] showed an EC50 (Bmi-1 protein) of 10 to 100 nM and a melting point of 100 to 103 °C.
Work on COc1ccc(Nc2nc(N)cc(-n3c(C)nc4ccccc43)n2)cn1 [Cpd 157, N^2-(6-methoxypyridin-3-yl)-6-(2-methyl-1H-benzimidazol-1-yl)pyrimidine-2,4-diamine] yielded an EC50 (Bmi-1 protein) of 10 to 100 nM and a melting point of 104 to 106 °C.
With CCc1nc2ccc(F)cc2n1-c1cc(N)nc(Nc2ccc(Cl)cc2)n1 [Cpd 158, N^2-(4-chlorophenyl)-6-(2-ethyl-6-fluoro-1H-benzimidazol-1-yl)pyrimidine-2,4-diamine] the EC50 (Bmi-1 protein) was 1 to 10 nM and the melting point was 185 to 187 °C.
In the case of CCc1nc2ccc(F)cc2n1-c1cc(N)nc(Nc2ccccc2)n1 [Cpd 159, 6-(2-ethyl-6-fluoro-1H-benzimidazol-1-yl)-N^2-phenylpyrimidine-2,4-diamine], the EC50 (Bmi-1 protein) is reported as 100 to 3000 nM and the melting point is reported as 160 to 162 °C.
In the case of CCc1nc2ccc(F)cc2n1-c1cc(N)nc(Nc2ccc(C)cc2)n1 [Cpd 160, 6-(2-ethyl-6-fluoro-1H-benzimidazol-1-yl)-N^2-(4-methylphenyl)pyrimidine-2,4-diamine], the EC50 (Bmi-1 protein) is reported as 1 to 10 nM and the melting point is reported as 187 to 189 °C.
For CCc1nc2ccc(F)cc2n1-c1cc(N)nc(Nc2ccc(OC)cc2)n1 [Cpd 161, 6-(2-ethyl-6-fluoro-1H-benzimidazol-1-yl)-N^2-(4-methoxyphenyl)pyrimidine-2,4-diamine], the EC50 (Bmi-1 protein) was 1 to 10 nM and the melting point was 166 to 168 °C.
CCc1nc2ccc(F)cc2n1-c1cc(N)nc(Nc2ccc(N(C)C)cc2)n1 [Cpd 162, N^2-[4-(dimethylamino)phenyl]-6-(2-ethyl-6-fluoro-1H-benzimidazol-1-yl)pyrimidine-2,4-diamine] showed an EC50 (Bmi-1 protein) of 10 to 100 nM and a melting point of 230 to 232 °C.
CCc1nc2ccc(F)cc2n1-c1cc(N)nc(Nc2cccc(F)c2)n1 [Cpd 163, 6-(2-ethyl-6-fluoro-1H-benzimidazol-1-yl)-N^2-(3-fluorophenyl)pyrimidine-2,4-diamine] showed an EC50 (Bmi-1 protein) of 100 to 3000 nM and a melting point of 169 to 171 °C.
CCc1nc2ccc(F)cc2n1-c1cc(N)nc(Nc2cccc(OC)c2)n1 [Cpd 165, 6-(2-ethyl-6-fluoro-1H-benzimidazol-1-yl)-N^2-(3-methoxyphenyl)pyrimidine-2,4-diamine] showed an EC50 (Bmi-1 protein) of 100 to 3000 nM and a melting point of 133 to 135 °C.
For CCc1nc2ccc(F)cc2n1-c1cc(N)nc(Nc2cccc(C)c2)n1 [Cpd 166, 6-(2-ethyl-6-fluoro-1H-benzimidazol-1-yl)-N^2-(3-methylphenyl)pyrimidine-2,4-diamine], the EC50 (Bmi-1 protein) was 100 to 3000 nM and the melting point was 149 to 150 °C.
Work on CCc1nc2ccc(F)cc2n1-c1cc(N)nc(Nc2ccc(C#N)cc2)n1 [Cpd 167, 4-{[4-amino-6-(2-ethyl-6-fluoro-1H-benzimidazol-1-yl)pyrimidin-2-yl]amino}benzonitrile] yielded an EC50 (Bmi-1 protein) of 100 to 3000 nM and a melting point of 252 to 255 °C.
In the case of CCc1nc2ccc(F)cc2n1-c1cc(N)nc(Nc2ccc(OC)c(F)c2)n1 [Cpd 168, 6-(2-ethyl-6-fluoro-1H-benzimidazol-1-yl)-N^2-(3-fluoro-4-methoxyphenyl)pyrimidine-2,4-diamine], the EC50 (Bmi-1 protein) is reported as 1 to 10 nM and the melting point is reported as 129 to 131 °C.
Cc1nc2ccc(F)cn2c1-c1cc(N)nc(Nc2ccc(F)cc2)n1 [Cpd 169, 6-(6-fluoro-2-methylimidazo[1,2-a]pyridin-3-yl)-N^2-(4-fluorophenyl)pyrimidine-2,4-diamine] showed an EC50 (Bmi-1 protein) of 100 to 3000 nM and a melting point of 250 to 253 °C.
With Cc1nc2ccc(F)cn2c1-c1cc(N)nc(Nc2ccc(Cl)cc2)n1 [Cpd 172, N^2-(4-chlorophenyl)-6-(6-fluoro-2-methylimidazo[1,2-a]pyridin-3-yl)pyrimidine-2,4-diamine] the EC50 (Bmi-1 protein) was 1 to 10 nM and the melting point was 243 to 246 °C.
CCc1nc2ccc(F)cc2n1-c1cc(N)nc(Nc2ccc(Cl)c(F)c2)n1 [Cpd 175, N^2-(4-chloro-3-fluorophenyl)-6-(2-ethyl-6-fluoro-1H-benzimidazol-1-yl)pyrimidine-2,4-diamine] showed an EC50 (Bmi-1 protein) of 10 to 100 nM and a melting point of 209 to 211 °C.
With Cc1cc2nc(C)n(-c3cc(N)nc(Nc4ccc(Cl)cc4)n3)c2cc1C [Cpd 184, N^2-(4-chlorophenyl)-6-(2,5,6-trimethyl-1H-benzimidazol-1-yl)pyrimidine-2,4-diamine] the EC50 (Bmi-1 protein) was 100 to 3000 nM and the melting point was 111 to 112 °C.
For COc1ccc(Nc2nc(N)cc(-n3c(C)nc4cc(C)c(C)cc43)n2)cc1 [Cpd 185, N^2-(4-methoxyphenyl)-6-(2,5,6-trimethyl-1H-benzimidazol-1-yl)pyrimidine-2,4-diamine], the EC50 (Bmi-1 protein) was 10 to 100 nM and the melting point was 113 to 114 °C.
With COc1ccc(Nc2nc(N)cc(-n3c(C)nc4cc(C)c(C)cc43)n2)cc1F [Cpd 186, N^2-(3-fluoro-4-methoxyphenyl)-6-(2,5,6-trimethyl-1H-benzimidazol-1-yl)pyrimidine-2,4-diamine] the EC50 (Bmi-1 protein) was 10 to 100 nM and the melting point was 120 to 121 °C.
COc1ccc(Nc2nc(N)cc(-n3c(C)nc4cc(C)c(C)cc43)n2)cc1Cl [Cpd 187, N^2-(3-chloro-4-methoxyphenyl)-6-(2,5,6-trimethyl-1H-benzimidazol-1-yl)pyrimidine-2,4-diamine] gave an EC50 (Bmi-1 protein) of 10 to 100 nM and a melting point of 129 to 131 °C.
